Source: article PMC6100557, “Quinazolinone-Amino Acid Hybrids as Dual Inhibitors of EGFR Kinase and Tubulin Polymerization” (Molecules : A Journal of Synthetic Chemistry and Natural …, 2018)
“Also recorded” adds a separate entry of the source. Read-outs that look alike come from different tables or passages of the source.

Experiments:
MDA-MBA-231 = test: In vitro cytotoxic screening (MTT assay), MDA-MBA-231; type: cell-based; conditions: read-out: IC50 (µM) MDA-MBA-231
Method: (§1) Cells were cultured using reported culture media, incubated for 24 h, treated with different concentrations of tested derivatives and incubated for 48 h. MTT was added to extract the color, which was then measured by ELISA [12].

MCF-7 = test: In vitro cytotoxic screening (MTT assay), MCF-7; type: cell-based; conditions: Homo sapiens, read-out: IC50 (µM) MCF-7
Method: as §1

[1] = test system: MCF-7 and MDA-MBA-231 cells; test: Cytotoxic screening on the two cell lines, selectivity MCF-7 versus MDA-MBA-231; type: cell-based; conditions: for Selectivity Indices S1: S1 = IC50 (MCF-7)/IC50 (MDA-MBA-231); for Cell Line (type of selectivity): S1 > S2: more selective to MDA-MBA-231, S2 > S1: more selective to MCF-7; for Selectivity Indices S2: S2 = IC50 (MDA-MBA-231)/IC50 (MCF-7)
Method: as §1

EGFR kinase = EGFR kinase (Homo sapiens, UniProt P00533); test: EGFR inhibition assay (HTScan EGFR kinase assay kit)
Description: High tech HTScan EGFR kinase assay kits (Cell Signaling Technology, Danvers, MA, USA) were used to measure EGFR kinase activity. The assay was achieved following the manufacturers’ instructions and reported procedures [16, 23].

porcine tubulin protein = target: T1, porcine tubulin protein (Sus scrofa, UniProt P02550+P02554); test: Tubulin polymerization inhibition assay (CytoDYNAMIX Screen kit); type: biochemical; conditions: absorbance 340 nm, 30 min, 37 °C
T1 construct: purchased Cytoskeleton Inc. BK006P
Method: Cold porcine tubulin protein (>99% purity) was added to a G-PEM buffer (80 mM PIPES, 2 mM MgCl2, 0.5 mM EGTA, 1 mM GTP, pH 6.9) containing 15% glycerol with or without the identified compounds. […] The absorbance was monitored every minute for 30 min at 340 nm [16, 23].

[2] = MTT assay, 48 h incubation, mean ± SD
[3] = MCF7, MTT assay, 48 h incubation, mean ± SD

Chain of EGFR kinase (P00533 672-1210 limits assumed): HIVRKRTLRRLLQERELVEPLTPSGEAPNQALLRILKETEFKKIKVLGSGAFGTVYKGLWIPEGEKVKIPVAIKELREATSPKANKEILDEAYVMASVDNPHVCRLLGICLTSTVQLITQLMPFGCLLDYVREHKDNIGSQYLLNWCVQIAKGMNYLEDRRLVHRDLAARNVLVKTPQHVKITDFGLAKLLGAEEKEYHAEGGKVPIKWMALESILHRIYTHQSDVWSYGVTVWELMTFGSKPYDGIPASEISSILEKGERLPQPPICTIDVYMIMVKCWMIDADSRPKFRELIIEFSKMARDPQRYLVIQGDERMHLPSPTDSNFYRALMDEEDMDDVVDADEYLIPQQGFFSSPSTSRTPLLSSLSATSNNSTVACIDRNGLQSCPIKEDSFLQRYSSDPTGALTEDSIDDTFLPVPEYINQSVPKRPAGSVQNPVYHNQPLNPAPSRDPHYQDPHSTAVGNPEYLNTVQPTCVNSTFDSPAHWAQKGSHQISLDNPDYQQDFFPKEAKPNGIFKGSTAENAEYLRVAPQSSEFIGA
T1 sequence (P02550 whole entry): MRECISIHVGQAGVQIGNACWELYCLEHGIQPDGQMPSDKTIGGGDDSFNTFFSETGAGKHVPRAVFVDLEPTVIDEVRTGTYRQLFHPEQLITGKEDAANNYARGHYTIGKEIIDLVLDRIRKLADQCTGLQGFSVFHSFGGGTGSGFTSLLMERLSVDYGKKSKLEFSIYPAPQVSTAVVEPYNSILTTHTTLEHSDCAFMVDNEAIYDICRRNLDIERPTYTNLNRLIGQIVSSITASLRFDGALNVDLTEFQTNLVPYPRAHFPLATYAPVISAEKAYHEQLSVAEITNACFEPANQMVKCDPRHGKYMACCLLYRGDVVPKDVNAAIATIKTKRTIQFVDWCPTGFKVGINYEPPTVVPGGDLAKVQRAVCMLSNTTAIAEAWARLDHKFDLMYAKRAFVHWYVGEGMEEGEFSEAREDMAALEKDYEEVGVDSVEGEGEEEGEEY
T1 sequence (P02554 whole entry): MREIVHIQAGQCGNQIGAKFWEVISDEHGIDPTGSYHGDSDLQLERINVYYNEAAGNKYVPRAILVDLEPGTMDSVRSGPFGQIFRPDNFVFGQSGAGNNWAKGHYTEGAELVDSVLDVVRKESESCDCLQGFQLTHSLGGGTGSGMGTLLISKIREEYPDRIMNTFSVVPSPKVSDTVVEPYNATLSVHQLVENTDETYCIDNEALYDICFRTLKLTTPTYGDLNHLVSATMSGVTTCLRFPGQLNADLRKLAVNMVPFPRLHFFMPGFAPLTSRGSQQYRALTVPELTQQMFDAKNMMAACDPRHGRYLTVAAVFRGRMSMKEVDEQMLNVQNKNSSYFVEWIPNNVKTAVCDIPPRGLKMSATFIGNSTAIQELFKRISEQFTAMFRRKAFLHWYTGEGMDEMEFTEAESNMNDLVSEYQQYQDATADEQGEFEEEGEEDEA

NCC(=O)Nn1c(-c2ccc(F)cc2)nc2ccc(F)cc2c1=O [A, 2-amino-N-(6-fluoro-2-(4-fluorophenyl)-4-oxoquinazolin-3(4H)-yl)acetamide]
IC50 (MDA-MBA-231; [2]): 16.3 ± 1.21 µM
IC50 (MCF-7; [3]): 25 ± 1.61 µM
melting point: 236 to 238 °C
Selectivity Indices S1 [1]: 1.53 ± 0.12
Cell Line (type of selectivity) [1]: more selective to MDA-MBA-231 than MCF-7; also recorded: MDA-MBA-231 selective
Selectivity Indices S2 [1]: 0.65 ± 0.05

CC(C)[C@H](N)C(=O)Nn1c(-c2ccc(F)cc2)nc2ccc(F)cc2c1=O [C, (S)-2-amino-N-(6-fluoro-2-(4-fluorophenyl)-4-oxoquinazolin-3(4H)-yl)-3-methylbutanamide]
IC50 (MDA-MBA-231; [2]): 3.45 ± 0.21 µM
IC50 (MCF-7; [3]): 1.16 ± 0.05 µM
melting point: 242 to 244 °C
Selectivity Indices S1 [1]: 0.34 ± 0.18
Cell Line (type of selectivity) [1]: more selective to MCF-7 than MDA-MBA-231; also recorded: MCF-7 selective
Selectivity Indices S2 [1]: 2.98 ± 0.71

C[C@H](N)C(=O)Nn1c(-c2ccc(F)cc2)nc2ccc(F)cc2c1=O [Compound B, (S)-2-amino-N-(6-fluoro-2-(4-fluorophenyl)-4-oxoquinazolin-3(4H)-yl)propanamide]
IC50 (MDA-MBA-231; [2]): 42.9 ± 2.64 µM
IC50 (MCF-7; [3]): 68.5 ± 3.27 µM
melting point: 238 to 240 °C
Selectivity Indices S1 [1]: 1.59 ± 0.05
Cell Line (type of selectivity) [1]: more selective to MDA-MBA-231 than MCF-7; also recorded: MDA-MBA-231 selective
Selectivity Indices S2 [1]: 0.63 ± 0.23

N[C@@H](CCC(=O)O)C(=O)Nn1c(-c2ccc(F)cc2)nc2ccc(F)cc2c1=O [Compound E, (S)-4-(6-fluoro-2-(4-fluorophenyl)-4-oxoquinazolin-3(4H)-ylcarbamoyl)-4-aminobutanoic acid]
IC50 (MDA-MBA-231; [2]): 0.43 ± 0.02 µM
IC50 (MCF-7; [3]): 12.4 ± 5.73 µM
melting point: 244 to 246 °C
Selectivity Indices S1 [1]: 28.93 ± 0.08
Cell Line (type of selectivity) [1]: more selective to MDA-MBA-231 than MCF-7; also recorded: MDA-MBA-231 selective
Selectivity Indices S2 [1]: 0.03 ± 0.11
IC50 (EGFR kinase): 0.54538 ± 4e-05 µM
IC50 (porcine tubulin protein): 6.24 µM

N[C@@H](Cc1ccccc1)C(=O)Nn1c(-c2ccc(F)cc2)nc2ccc(F)cc2c1=O [Compound G, (S)-2-amino-N-(6-fluoro-2-(4-fluorophenyl)-4-oxoquinazolin-3(4H)-yl)-3-phenylpropanamide]
IC50 (MDA-MBA-231; [2]): 24.7 ± 1.7 µM
IC50 (MCF-7; [3]): 0.44 ± 0.01 µM
melting point: 245 to 247 °C
Selectivity Indices S1 [1]: 0.02 ± 0.07
Cell Line (type of selectivity) [1]: more selective to MCF-7 than MDA-MBA-231; also recorded: MCF-7 selective
Selectivity Indices S2 [1]: 56.07 ± 0.15
IC50 (EGFR kinase): 0.16397 ± 7e-05 µM

CCC(C)[C@H](N)C(=O)Nn1c(-c2ccc(F)cc2)nc2ccc(F)cc2c1=O (stereo partly drawn) [D, (2S)-2-amino-N-(6-fluoro-2-(4-fluorophenyl)-4-oxoquinazolin-3(4H)-yl)-3-methylpentanamide]
IC50 (MDA-MBA-231; [2]): 7.49 ± 0.42 µM
IC50 (MCF-7; [3]): 11.3 ± 1.25 µM
melting point: 248 to 250 °C
Selectivity Indices S1 [1]: 1.51 ± 0.24
Cell Line (type of selectivity) [1]: more selective to MDA-MBA-231 than MCF-7; also recorded: MDA-MBA-231 selective
Selectivity Indices S2 [1]: 0.66 ± 0.17

C#Cc1cccc(Nc2ncnc3cc(OCCOC)c(OCCOC)cc23)c1 [Erlotinib, erlotinib, reference compound]
IC50 (MDA-MBA-231; 48 h): 2.55 ± 0.19 µM
IC50 (MCF-7; MCF7, 48 h): 1.14 µM

N[C@H](CS)C(=O)Nn1c(-c2ccc(F)cc2)nc2ccc(F)cc2c1=O [F, (S)-2-amino-N-(6-fluoro-2-(4-fluorophenyl)-4-oxoquinazolin-3(4H)-yl)-3-mercaptopropanamide]
IC50 (MDA-MBA-231; [2]): 12.5 ± 5.88 µM
IC50 (MCF-7; [3]): 1.93 ± 0.08 µM
melting point: 220 to 222 °C
Selectivity Indices S1 [1]: 0.15 ± 0.17
Cell Line (type of selectivity) [1]: more selective to MCF-7 than MDA-MBA-231; also recorded: MCF-7 selective
Selectivity Indices S2 [1]: 6.46 ± 0.04

O=C(Nn1c(-c2ccc(F)cc2)nc2ccc(F)cc2c1=O)C1CCCN1 (centres unmarked) [H, N-(6-fluoro-2-(4-fluorophenyl)-4-oxoquinazolin-3(4H)-yl)pyrrolidine-2-carboxamide]
IC50 (MDA-MBA-231; [2]): 12 ± 1.33 µM
IC50 (MCF-7; [3]): 1.28 ± 0.03 µM
melting point: 235 to 237 °C
Selectivity Indices S1 [1]: 0.11 ± 0.23
Cell Line (type of selectivity) [1]: more selective to MCF-7 than MDA-MBA-231; also recorded: MCF-7 selective
Selectivity Indices S2 [1]: 9.34 ± 0.02
